Converted amounts (≈) assume the structure as drawn.

By solubility is commonly meant the concentration that dissolves in the medium under given conditions.

Data set [1] concerns allergen-induced airway inflammation and bronchial hyperresponsiveness in a mouse model of asthma. Nature of the data set: Mouse model of asthma, inhalation, short exposure challenge. The conditions noted are these: inhalation of Compound I 40 mg/ml in pure DMSO, short-term exposure, vs DMSO alone.
Method: Two protocols referred to as short exposure challenge and long-term exposure challenge were used. […] No inhalations were performed during even weeks.
(§1) The aerosol were produced by using an ultrasonic nebuliser SYSTAM (Système Assistance Medical, Le Ledat, France), the vibration frequency of which is 2.4 MHz with variable vibration intensity and ventilation levels. Vibration intensity was fixed in position 6 and the ventilation level was 25(v1/2) l/min.
Twenty-four hours after the last allergen exposure, the bronchial hyper responsiveness was determined by measuring the Penh using a barometric plethysmograph as proposed by Hamelmann, E., et al., Am. […] The Penh was measured at baseline and 5 min after the inhalation of increasing doses (25, 50, 75 and 100 mM) of methacholine (Mch).
Immediately after the assessment of airway responsiveness, mice were sacrificed and 1 ml of PBS free of ionised calcium and magnesium but supplemented with 0.05 mM sodium EDTA was instilled 4 times via a tracheal cannula and recovered by gentle manual aspiration. The recovered bronchoalveolar lavage fluid (BAL) was centrifuged (1800 rpm for 10 min at 4° C.). The cell pellet was washed twice and finally resuspended in 1 ml of PBS. A total cell count was performed in a Thoma chamber and the differential cell counts on at least 400 cells were performed on cytocentrifuged preparations (Cytospin 2; Cytospin, Shandon td., Runcorn, Cheshire, U.K.) using standard morphologic criteria after staining with Diff-Quick (Dade, Germany). After BAL, the thorax was opened and the left main bronchus was clamped. […] Sections of 5 μm thickness from all lobes were stained with haematoxylin and eosin. The extent of peribronchial infiltrates was estimated by an inflammation score. […] A value from 0 to 3 per criteria was adjudged to each tissue section scored. […] As 5-7 randomly selected tissue sections per mouse were scored, inflammation scores could be expressed as a mean value per animal and could be compared between groups.
Data set [2] in a line: Differential solubility in acetonitrile of free and complexed compound I. Format: physicochemical. The conditions noted are these: organic solvent or mixture; free compound. The text has this:
Compound I has different solubility when it is in the complex form or not. […] In these conditions the included drug remains trapped and becomes insoluble in the solvent. This technique of differential solubility between compound I in the free or in the complexed form can be applied to evaluate the percentage of complexation.

Data set [3] is described as follows: Pharmacokinetics after intravenous administration to sheep. The conditions noted are these: intravenous 5 mg/kg. The class given is in vivo. The method, then:
The Compound I/HP-β-CD intravenous solution was obtained by dissolving Compound I (10 mg/ml) in a solution containing HP-β-CD (200 mM), L-lysine (20 mM) and water for injection. The osmolality (about 325 mOsmol/kg) and the pH (about 8.2) values of this solution are compatible with an intravenous injection. The solution was sterilized by passing through a sterile 0.20 μm cellulose acetate filter under aseptic conditions.
Six healthy sheep (2 males and 4 females) ranging from 45 to 82 kg of body weight were used as experimental animals. During the test, the animals were fed and watered ad libitum. […]
For the intravenous administration study, the pharmacokinetic parameters were determined for each animal using a linear two-compartment model with first-order distribution and elimination (Boroujerdi, M., Pharmacokinetics, Principles and Applications. McGrow-Hill Companies, USA, 2002). The areas under the curve values (AUCs0-168) were calculated by linear trapezoidal rule during the sampling period. The AUC extrapolated until infinite values (AUCs0-∞) the total body clearance values (Clt), the biologic half-life (T1/2β) and the overall volume of distribution (Vdt) were calculated using conventional equations associated with compartmental analysis (Boroujerdi, M., Pharmacokinetics, Principles and Applications. McGrow-Hill Companies, USA, 2002).

Data set [4] deals with allergen-induced airway inflammation in a mouse model of asthma. Nature of the data set: Mouse model of asthma, inhalation, long-term exposure challenge (11 weeks). The conditions noted are these: aerosol, long term (11 weeks) allergen exposure, p<0.01.
Method: Intraperitoneal injections were performed 30 min before OVA inhalations. […] Two protocols referred to as short exposure challenge and long-term exposure challenge were used. […] No inhalations were performed during even weeks.
as §1
Immediately after the assessment of airway responsiveness, mice were sacrificed and 1 ml of PBS free of ionised calcium and magnesium but supplemented with 0.05 mM sodium EDTA was instilled 4 times via a tracheal cannula and recovered by gentle manual aspiration. […] After BAL, the thorax was opened and the left main bronchus was clamped. […] Another score referred to as tissue eosinophil infiltration score, specifically reflecting the amounts of eosinophils infiltrating the bronchial walls, was measured as follows: after a congo red staining, seven bronchi were studied per mouse. The eosinophils were counted around the bronchi within the limits of the airway wall, the perimeter of the epithelial basement membrane was measured and the results were expressed as number of eosinophils/mm of basement membrane.
Data set [5] in a line: Phase solubility studies with L-lysine solution as adjuvant (25° C., 7 days, LC). Format: physicochemical. The protocol: Solubility studies were performed as described by Higuchi, T., and Connors, K. A., Advances in Analytical Chemistry and Instrumentation 4 (1965) 117-212. Excess amounts of Compound I were added to increasing concentrations of HP-β-CD (0-200 mM) in 5 ml dissolution media, either purified water or L-lysine solutions (50 mM or 500 mM). The glass containers were sealed and the suspensions were shaken in a water-bath at 25° C. until complexation equilibrium was reached (7 days). An aliquot was filtered through a 0.45 μm PVDF membrane filter and assayed for Compound I content by a validated liquid chromatography (LC) method.

Consider `O=C1NC(=O)C(c2ccc(-c3ccccc3)cc2)(N2CCN(c3ccc([N+](=O)[O-])cc3)CC2)C(=O)N1` [Compound I, 5-Biphenyl-4-yl-5-[4-(4-nitro-phenyl)-piperazin-1-yl]pyrimidine-2,4,6-trione], for which the BAL eosinophils result in data set [1] (p<0.005) is on record as “significant decrease”. The Peribronchial inflammation scores entry in data set [1] (p<0.01) is listed as “significant decrease”. Also, in data set [1] (p<0.05), the Bronchial hyperresponsiveness result is “significant decrease”. Besides, the solubility in data set [2] is about 700 µg/mL (≈ 1440 µM). Moreover, the Distribution phase entry in data set [3] is listed as “about 30 minutes”. Besides, in data set [4], the “Tissue eosinophil infiltration score” value is recorded as “decreased”. In addition, the “Increase of aqueous solubility” value in data set [5] (200 mM HP-β-CD, absence of L-lysine) was “approximately 10,000 fold”; in data set [5] (500 mM of L-lysine and 200 mM of HP-β-CD) it was 70,000 fold. Further, the “Solubility with HP-β-CD (200 mM)” value in data set [5] (Purified Water, 25° C.) turned out to be 5530 µg/mL.

(Values after patent US8044035B2, “Pharmaceutical compositions of pyrimidine-2,4,6-triones” (priority 2004, dated 2011).)
